Measurements published in the NIST ThermoML archive (doi:10.1021/acs.jced.8b00492).

Experiment: mn = molality of the nth substance listed, in mol/kg
Details: for surface tension liquid-gas: Ring tensiometer; for viscosity / speed of sound / mass density: 100 kPa, Liquid; for viscosity: Capillary tube (Ostwald / Ubbelohde) method; for speed of sound: Frequency=3 MHz, Single path-length method; for mass density: Vibrating tube method

C1N2CN3CN1CN(C2)C3 [1,3,5,7-tetraazaadamantane] + O
Details | mass density [kg/m3] | speed of sound [m/s] | surface tension liquid-gas [mN/m] | viscosity [mPa·s]
293.15 K, m1 = 0.207 | 1004.3 | 1493.6 | 69.2 | 1.075
293.15 K, m1 = 0.425 | 1010.5 | 1504.9 | 67.4 | 1.168
293.15 K, m1 = 0.654 | 1016.6 | 1516.5 | 66.2 | 1.287
293.15 K, m1 = 0.897 | 1022.9 | 1528.8 | 65.4 | 1.419
293.15 K, m1 = 1.164 | 1029.5 | 1541.8 | 64.8 | 1.579
293.15 K, m1 = 1.449 | 1036.1 | 1555.9 | 64.4 | 1.711
293.15 K, m1 = 1.748 | 1042.9 | 1569.3 | 64 | 1.911
293.15 K, m1 = 2.068 | 1049.6 | 1583.3 | 63.7 | 2.142
293.15 K, m1 = 2.412 | 1056.3 | 1597.1 | 63.5 | 2.477
293.15 K, m1 = 2.779 | 1063.3 | 1611.8 | 63.3 | 2.777
293.15 K, m1 = 3.181 | 1070.4 | 1626.9 | 63.2 | 3.217
293.15 K, m1 = 3.617 | 1077.6 | 1642.5 | 63.1 | 3.698
293.15 K, m1 = 4.088 | 1084.9 | 1658.4 | 63 | 4.214
293.15 K, m1 = 4.609 | 1092.3 | 1674.7 | 62.9 | 4.991
293.15 K, m1 = 5.155 | 1099.8 | 1691.4 | 62.9 | 5.869
303.15 K, m1 = 0.207 | 1001.6 | 1519 | 67.5 | 0.88
303.15 K, m1 = 0.425 | 1007.7 | 1529.4 | 66.1 | 0.942
303.15 K, m1 = 0.654 | 1013.8 | 1539.3 | 65 | 1.025
303.15 K, m1 = 0.897 | 1019.9 | 1550 | 64.2 | 1.085
303.15 K, m1 = 1.164 | 1026.4 | 1561.1 | 63.5 | 1.193
303.15 K, m1 = 1.449 | 1032.9 | 1573.6 | 62.9 | 1.309
303.15 K, m1 = 1.748 | 1039.4 | 1585 | 62.5 | 1.472
303.15 K, m1 = 2.068 | 1046 | 1597.4 | 62.2 | 1.631
303.15 K, m1 = 2.412 | 1052.9 | 1609.3 | 61.9 | 1.875
303.15 K, m1 = 2.779 | 1059.7 | 1622.1 | 61.7 | 2.094
303.15 K, m1 = 3.181 | 1066.6 | 1635.2 | 61.5 | 2.402
303.15 K, m1 = 3.617 | 1073.6 | 1648.7 | 61.4 | 2.743
303.15 K, m1 = 4.088 | 1080.8 | 1662.4 | 61.3 | 3.092
303.15 K, m1 = 4.609 | 1088 | 1676.5 | 61.2 | 3.635
303.15 K, m1 = 5.155 | 1095 | 1690.9 | 61.2 | 4.21
313.15 K, m1 = 0.207 | 998 | 1538 | 66.3 | 0.718
313.15 K, m1 = 0.425 | 1004.1 | 1546.6 | 64.7 | 0.761
313.15 K, m1 = 0.654 | 1010.1 | 1555.4 | 63.5 | 0.806
313.15 K, m1 = 0.897 | 1016.1 | 1565 | 62.8 | 0.87
313.15 K, m1 = 1.164 | 1022.5 | 1574.7 | 62.1 | 0.936
313.15 K, m1 = 1.449 | 1028.9 | 1585.8 | 61.5 | 1.017
313.15 K, m1 = 1.748 | 1035.4 | 1595.6 | 61.1 | 1.158
313.15 K, m1 = 2.068 | 1041.8 | 1606.6 | 60.7 | 1.26
313.15 K, m1 = 2.412 | 1048.3 | 1616 | 60.5 | 1.441
313.15 K, m1 = 2.779 | 1055 | 1627.1 | 60.3 | 1.597
313.15 K, m1 = 3.181 | 1061.8 | 1638.5 | 60.2 | 1.82
313.15 K, m1 = 3.617 | 1068.7 | 1650.1 | 60.1 | 2.063
313.15 K, m1 = 4.088 | 1075.6 | 1661.9 | 60 | 2.296
313.15 K, m1 = 4.609 | 1082.7 | 1674 | 59.9 | 2.687
313.15 K, m1 = 5.155 | 1089.8 | 1687.2 | 59.9 | 3.084
323.15 K, m1 = 0.207 | 993.9 | 1549.2 | 65.1 | 0.596
323.15 K, m1 = 0.425 | 999.7 | 1557.4 | 63.4 | 0.635
323.15 K, m1 = 0.654 | 1005.6 | 1566.1 | 62.1 | 0.671
323.15 K, m1 = 0.897 | 1011 | 1574.4 | 61.2 | 0.716
323.15 K, m1 = 1.164 | 1018 | 1583 | 60.5 | 0.755
323.15 K, m1 = 1.449 | 1024.3 | 1593.1 | 60.1 | 0.819
323.15 K, m1 = 1.748 | 1030.7 | 1601.3 | 59.7 | 0.908
323.15 K, m1 = 2.068 | 1037.1 | 1611.1 | 59.5 | 0.985
323.15 K, m1 = 2.412 | 1043.5 | 1620 | 59.2 | 1.131
323.15 K, m1 = 2.779 | 1050.1 | 1629.6 | 59 | 1.233
323.15 K, m1 = 3.181 | 1056.8 | 1639.4 | 58.9 | 1.387
323.15 K, m1 = 3.617 | 1063.5 | 1649.3 | 58.8 | 1.569
323.15 K, m1 = 4.088 | 1070.4 | 1659.4 | 58.7 | 1.77
323.15 K, m1 = 4.609 | 1077.3 | 1669.7 | 58.6 | 2.027
323.15 K, m1 = 5.155 | 1084.2 | 1680.2 | 58.6 | 2.327
